Data reported in publication PMC9950073, “Alleviation of arthritis through prevention of neutrophil extracellular traps by an orally available inhibitor of protein arginine deiminase 4” (Scientific Reports, 2023).

System: collagen induced arthritis
Test: Collagen induced arthritis model in DBA/1 mice
Type: in vivo
Settings: Dexamethasone dose not given; for clinical score: JBI-589 50 mg/kg po BID day 0-45; for clinical score / bone erosion (histopathology) / joint inflammation (histopathology) / pannus formation (histopathology): Etanercept 25 mg/kg IP day 31–45

Row | Compound | clinical score | bone erosion (histopathology) (JBI-589 50 mg/kg po BID) | joint inflammation (histopathology) (JBI-589 50 mg/kg po BID) | pannus formation (histopathology) (JBI-589 50 mg/kg po BID) | spleen weight (day 45, JBI-589 50 mg/kg po BID) | body weight (end of study, JBI-589 50 mg/kg po BID)
1 | C[C@@H]1C[C@H]2[C@@H]3CCC4=CC(=O)C=C[C@]4(C)[C@@]3(F)[C@@H](O)C[C@]2(C)[C@@]1(O)C(=O)CO [Dexamethasone] | strong inhibition | significantly decreased | significantly decreased | significantly decreased | stronger reduction | stronger reduction
2 | Etanercept | comparable inhibition | no appreciable effect | no appreciable effect | no appreciable effect | – | –
